Assay results from patent US7049317B2, “CCR-3 receptor antagonists” (Syntex (U.S.A.) LLC, priority 2001, dated 2006).

How the values were obtained:
CCR-3 receptor = target: T1, CCR-3 receptor (Homo sapiens, UniProt P51677); assay: CCR-3 Receptor Binding Assay, inhibition of 125I eotaxin binding to CCR-3 L1.2 transfectant cells; details: 1 hour at room temperature
T1 construct: expressed in transfected cells; host or cells: L1.2 cells (murine pre-B lymphoma line)
T1 sequence (P51677 1-355): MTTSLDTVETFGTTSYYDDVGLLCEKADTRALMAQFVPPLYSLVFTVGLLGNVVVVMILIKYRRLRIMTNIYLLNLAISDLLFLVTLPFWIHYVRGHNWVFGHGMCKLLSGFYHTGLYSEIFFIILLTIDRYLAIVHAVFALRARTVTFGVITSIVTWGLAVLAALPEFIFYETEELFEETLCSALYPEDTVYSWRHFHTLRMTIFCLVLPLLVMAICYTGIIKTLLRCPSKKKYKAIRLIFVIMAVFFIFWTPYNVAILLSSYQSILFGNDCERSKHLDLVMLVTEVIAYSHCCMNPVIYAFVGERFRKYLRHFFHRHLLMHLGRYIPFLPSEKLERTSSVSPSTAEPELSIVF
Experimental: The CCR-3 antagonistic activity of the compounds of the invention was determined by their ability to inhibit the binding of ^125I eotaxin to CCR-3 L1.2 transfectant cells (see Ponath, P. D. et al., J. Exp. Med., Vol. 183, 2437–2448, (1996)).
The assay was performed in Costar 96-well polypropylene round bottom plates. Test compounds were dissolved in DMSO and then diluted with binding buffer (50 mM HEPES, 1 mM CaCl2, 5 mM MgCl2, 0.5% bovine serum albumin (BSA), 0.02% sodium azide, pH 7.24) such that the final DMSO concentration was 2%. 25 μl of the test solution or only buffer with DMSO (control samples) was added to each well, followed by the addition of 25 μl of ^125I-eotaxin ([…]) (NEX314, New England Nuclear, Boston, Mass.) and 1.5×10^5 of the CCR-3 L1.2 transfected cells in 25 μl binding buffer. The final reaction volume was 75 μl.
After incubating the reaction mixture for 1 hour at room temperature, the reaction was terminated by filtering the reaction mixture through polyethylenimine treated Packard Unifilter GF/C filter plate (Packard, Chicago, Ill.). The filters were washed four times with ice cold wash buffer containing 10 mm HEPES and 0.5M sodium chloride (pH 7.2) and dried at 65° C. for approximately 10 minutes. 25 μl/well of Microscint-20® scintillation fluid (Packard) was added and the radioactivity retained on the filters was determined by using the Packard TopCount®

SMILES: COc1ccc(-c2cnc(SCC(=O)N[C@@H]3CCC[C@H]3N(C)CCc3ccc(Cl)cc3)nc2)cc1OC.Cl (racemic)
- melting point: 123.7 to 125.3 °C

SMILES: COc1cc(NC(=O)N[C@@H]2CCC[C@H]2NCCc2ccc(Cl)cc2)cc(OC)c1OC.Cl (racemic)
- melting point: 97 to 101.5 °C

SMILES: COc1ccc(-c2cnc(SCC(=O)N[C@@H]3CCC[C@H]3NCCc3ccc(Cl)cc3)nc2)cc1OC.Cl (racemic)
- melting point: 181.3 to 185.6 °C

SMILES: COc1cc(NC(=O)N[C@@H]2CCC[C@H]2NCCCc2ccc(Cl)cc2)cc(OC)c1OC.Cl (racemic)
- melting point: 91.3 to 96 °C

SMILES: CS(=O)(=O)c1ccc(C(=O)N[C@@H]2CCC[C@H]2NCCc2ccc(Cl)cc2)cc1.Cl (racemic)
- melting point: 221.8 to 222.7 °C

SMILES: COc1cc(NC(=O)N[C@@H]2CCC[C@H]2N(C)CCCc2ccc(Cl)cc2)cc(OC)c1OC.Cl (racemic)
- melting point: 75 to 82 °C

SMILES: CN(CCc1ccc(Cl)cc1)[C@@H]1CCC[C@H]1NC(=O)c1ccc(S(C)(=O)=O)cc1.Cl (racemic)
- melting point: 179 to 179.3 °C

SMILES: CN(CCCc1ccc(Cl)cc1)[C@@H]1CCC[C@H]1NC(=O)c1ccc(S(C)(=O)=O)cc1.Cl (racemic)
- melting point: 109 to 113 °C

SMILES: COc1ccc(-c2cnc(SCC(=O)N[C@@H]3CCC[C@H]3NCCCc3ccc(Cl)cc3)nc2)cc1OC.Cl (racemic) [Compound 1, (±)-trans-N-{2-[3-(4-Chlorophenyl)propylamino]cyclopentyl}-2-[5-(3,4-dimethoxyphenyl)pyrimidin-2-ylsulfanyl]acetamide hydrochloride]
- melting point: 95.3 to 111.3 °C
- IC50 (CCR-3 receptor): 18.2 µM

SMILES: CS(=O)(=O)c1ccc(C(=O)N[C@@H]2CCC[C@H]2NCCCc2ccc(Cl)cc2)cc1.Cl (racemic) [Compound 2, (±)-trans-N-{2-[3-(4-Chlorophenyl)propylamino]cyclopentyl}-4-methanesulfonylbenzamide hydrochloride]
- melting point: 192.3 to 196.8 °C
- IC50 (CCR-3 receptor): 6.8 µM

SMILES: COc1cc(NC(=O)N[C@@H]2CCC[C@H]2N(C)CCc2ccc(Cl)cc2)cc(OC)c1OC.Cl (racemic) [Compound 6, (±)-trans-1-(2-{[2-(4-Chlorophenyl)ethyl]methylamino}cyclopentyl)-3-(3,4,5-trimethoxyphenyl)urea hydrochloride]
- melting point: 97 to 105 °C
- IC50 (CCR-3 receptor): 5.4 µM

SMILES: COc1ccc(-c2cnc(SCC(=O)N[C@@H]3CCC[C@H]3N(C)CCCc3ccc(Cl)cc3)nc2)cc1OC.Cl (racemic) [Compound 9, (±)-trans-N-(2-{[3-(4-Chlorophenyl)propyl]methylamino}-cyclopentyl)-2-[5-(3,4-dimethoxyphenyl)pyrimidin-2-ylsulfanyl]acetamide hydrochloride]
- melting point: 91.5 to 98.5 °C
- IC50 (CCR-3 receptor): 5.6 µM
